For data set [1], the target named is T1, LCK (Homo sapiens, UniProt P06239).
T1 construct: 15 μL of LCK KD GST (225-509) for a final volume of 40 μL; GST
Briefly: LCK-Homogeneous Time Resolved Fluorescent (HTRF) Kinase Assay. Type of data set: biochemical. The note with it: LCK KD GST (225-509). As for the experimental part: The LCK HTRF assay begins with LCK in the presence of ATP phosphorylating the biotinylated peptide Gastrin. The reaction incubates for 90 min. To quench the assay detection reagents are added which both stop the reaction by diluting out the enzyme and chelating the metals due to the presence of EDTA. Once the detection reagents are added the assay incubates for 30 min to allow for equilibration of the detection reagents.
The final concentration of gastrin is 1.2 μM. The final concentration of ATP is 0.5 μM (Km app=[…]) and the final concentration of LCK is […]. Buffer conditions are as follows: 50 mM HEPES pH 7.5, 50 mM NaCl, 20 mM MgCl, 5 mM MnCl, 2 mM DTT, 0.05% BSA.
The assay is quenched and stopped with 160 μL of detection reagent. Detection reagents are as follows: Buffer made of 50 mM Tris, pH 7.5, 100 mM NaCl, 3 mM EDTA, 0.05% BSA, 0.1% Tween20. Added to this buffer prior to reading is Steptavidin allophycocyanin (SA-APC) at a final conc in the assay of 0.0004 mg/mL, and europilated anti-phosphotyrosine Ab (Eu-anti-PY) at a final conc of 0.025 nM.
The assay plate is read in either a Discovery or a RubyStar. The eu-anti-PY is excited at 320 nm and emits at 615 nm to excite the SA-APC which in turn emits at 655 nm. The ratio of SA-APC at 655 nm (excited due to close proximity to the Eu-anti-PY because of phosphorylation of the peptide) to free Eu-anti-PY at 615 nm will give substrate phosphorylation.
Background: TR-FRET usually uses a lanthanide donor and a delayed reading to cut background.

Data set [2] relates to HeLa cells. Briefly: ACK1 Cell Based Assay, control (HeLa) cell line. The conditions noted are these: 0.125% FCS, 20 to 24 h. The method, then:
(§1) The ACK1 cell based assay is designed to find inhibitors of ACK1 kinase activity which would be prime candidates for the development of anticancer drugs. […] This dependency was confirmed utilizing ACK1 specific siRNAs.
(§2) For this assay, test (C8) and control (HeLa) cell lines are seeded in 96 well tissue culture plates (BD Falcon) at a density of 2 to 4×10^4 in DMEM/F12 (C8) or DMEM (HeLa) with 0.125% FCS in the presence of ACK1 inhibitors (final DMSO concentration is 0.5%, all tissue culture media are from Cellgro). After 20 to 24 h incubation at 37° C. and 5% CO2, cell viability is determined using the Cytotox One kit (Promega) according to the manufacturer's instructions.

The target in data set [3] is T2, ACK1 (Homo sapiens, UniProt Q07912).
T2 construct: a fusion of an N-terminal (His)6 Tag with amino acids 117 to 489 of ACK1; (His)6 (N); made in house; host or cells: baculovirus infected Hi-5 insect cells
T2 sequence (Q07912 117-489): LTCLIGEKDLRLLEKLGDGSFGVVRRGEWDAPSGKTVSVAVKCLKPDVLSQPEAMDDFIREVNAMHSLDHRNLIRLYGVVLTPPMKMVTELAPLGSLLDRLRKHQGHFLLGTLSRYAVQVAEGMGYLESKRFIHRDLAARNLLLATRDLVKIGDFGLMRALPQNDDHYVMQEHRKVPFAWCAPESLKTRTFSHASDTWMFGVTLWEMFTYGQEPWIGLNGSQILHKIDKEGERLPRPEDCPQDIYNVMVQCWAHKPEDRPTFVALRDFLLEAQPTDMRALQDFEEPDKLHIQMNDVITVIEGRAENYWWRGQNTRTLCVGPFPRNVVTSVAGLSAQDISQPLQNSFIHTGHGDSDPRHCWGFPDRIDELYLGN
In words: ACK1 Enzymatic Assay. Type of data set: biochemical. The note with it: 5 μM ATP, ELISA phosphotyrosine readout. The method, then:
IC50 values of inventive compounds may be assessed as follows. […] The substrate of for the reaction is ACK1 itself (autophosphorylation) and poly-Glutamic acid-Tyrosine (PGT (4:1), Sigma catalog #PO275). The PGT is coated to Nunc 96 well plates at 80 μg/mL overnight at 4° C. […] Test compounds are added in 10 μL DMSO, and the reaction is started by addition of 10 μL kinase in assay buffer. The reaction proceeds 2 h at room temperature. Next the plates are washed four times, and the level of tyrosine phosphorylation in a given well is quantified by standard ELISA assay utilizing a phosphotyrosine antibody (PY20, Pierce).
For orientation: ELISA stands for enzyme-linked immunosorbent assay.

Data set [4] relates to C8 cells. In words: ACK1 Cell Based Assay, test (C8) cell line. The note with it: 0.125% FCS, 20 to 24 h; for IC50: cell viability (Cytotox One kit). As for the experimental part:
as §1, §2

The structures appear in SMILES notation.

T1 sequence (P06239 225-509): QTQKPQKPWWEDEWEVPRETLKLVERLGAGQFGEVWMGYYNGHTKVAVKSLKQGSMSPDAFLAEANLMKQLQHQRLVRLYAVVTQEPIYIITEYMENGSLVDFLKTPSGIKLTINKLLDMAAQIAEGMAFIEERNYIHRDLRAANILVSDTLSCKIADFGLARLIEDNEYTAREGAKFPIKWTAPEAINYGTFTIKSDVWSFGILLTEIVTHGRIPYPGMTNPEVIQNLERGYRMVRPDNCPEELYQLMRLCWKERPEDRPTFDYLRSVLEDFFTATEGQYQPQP

The Ki is the dissociation constant of the complex between target and ligand, obtained from inhibition or displacement. High values mean weaker binding, low ones tighter binding. As a reminder, the IC50 is the midpoint of a concentration-inhibition curve. Regarding `CN(C)CCOc1ccc(-c2[nH]c3ncnc(NC[C@@H]4CCCO4)c3c2-c2ccccc2)cc1` [Example 20, {6-[4-(2-Dimethylamino-ethoxy)-phenyl]-5-phenyl-7H-pyrrolo[2,3-d]pyrimidin-4-yl}-(tetrahydro-furan-2-ylmethyl)-amine], the Ki in data set [1] was under 10 nM. Also, the “cytotoxic effect on HeLa cells” value in data set [2] is on record as “no cytotoxic effect”. The same molecule yielded a Ki in data set [3] of under 10 nM. Also, in data set [4], the “cytotoxicity to C8 cells” value is “cytotoxic” and the IC50 was in the range of 10 to 100 nM.
As to `CN(C)CCNC(=O)c1ccc(-c2[nH]c3ncnc(NCC4CCCO4)c3c2-c2ccccc2)cc1` (centres unmarked) [Example 32, N-(2-Dimethylamino-ethyl)-4-{5-phenyl-4-[(tetrahydrofuran-2-ylmethyl)-amino]-7H-pyrrolo[2,3-d]pyrimidin-6-yl}-benzamide], the inhibition constant (Ki) in data set [1] and in data set [3] was under 10 nM each time. Besides, in data set [4], the IC50 lay in the range of 10 to 100 nM.
In the case of `CN(C)CCOc1ccc(-c2[nH]c3ncnc(NCC4CCC4)c3c2-c2ccccc2)cc1` [Example 34, Cyclobutylmethyl-{6-[4-(2-dimethylamino-ethoxy)-phenyl]-5-phenyl-7H-pyrrolo[2,3-d]pyrimidin-4-yl}-amine], the values for the Ki in data set [1] and in data set [3] were under 10 nM and 10 to 100 nM, respectively. This molecule returned a 50% inhibitory concentration (IC50) in data set [4] of over 100 nM.

The record behind these values is patent US7358250B2, “Pyrrolo[2,3-d]pyrimidines that modulate ACK1 activity” (Amgen Inc., priority 2004, dated 2008).
